Read-outs that look alike come from different tables or passages of the source. Values belong to the molecule of their own block, whether it stands above or below them.
Assays:
MOLT-4 cells = assay: Gal3-mediated apoptosis of MOLT-4 cells (annexin V); format: cell-based, human
human CD8+ T cells = assay: Gal3-mediated apoptosis of human CD8+ T cells (annexin V); format: cell-based
From the text: (§1) Jurkat cells were used for gal3-mediated apoptosis at various concentration of gal3. To investigate gal3-mediated apoptosis of human CD8^+ cells, peripheral blood mononuclear cells (PBMCs) were isolated from chronic leukemia patients using Ficoll-paque density gradient method (39) followed by negative selection of CD8^+ cells with a cocktail of antibodies using a kit (BD Biosciences, MD). The presence of CD8^+ cells in the purified fraction was confirmed by staining cells with anti-CD8 antibody.

[1] = test system: activated pmel T cells on B16 melanoma cells; assay: B16 melanoma cell-associated apoptosis of activated pmel T cells; format: cell-based, mouse; conditions: B16 monolayer about 24 h; untreated about 53%; TFD100 3.5 nM, lactose 50 μM
Protocol: To investigate if tumor-associated gal3 can induce tumor specific CD8 T cells, we used B16 melanoma-specific transgenic D90.1 CD8 T cells (pmel T cells) (40). After harvesting T cells from mouse spleen, cells were activated with a peptide (40), mixed with a monolayer of B16 melanoma cells and apoptosis was measured by Annexin V binding after gating with anti-CD8 antibodies.

[2] = molecular target: gal9N (N-terminal of gal9) (UniProt O00182); assay: Solid phase binding-inhibition assay: gal9N binding to asialofetuin; conditions: read-out: I50 value
Jurkat cells = assay: Gal3-mediated apoptosis of Jurkat cells; format: cell-based, human
From the text: as §1

gal4 = molecular target: T1, gal4 (Homo sapiens, UniProt P56470); assay: Solid phase binding-inhibition assay: gal4 binding to asialofetuin; conditions: read-out: I50 value
T1 sequence (P56470 1-323): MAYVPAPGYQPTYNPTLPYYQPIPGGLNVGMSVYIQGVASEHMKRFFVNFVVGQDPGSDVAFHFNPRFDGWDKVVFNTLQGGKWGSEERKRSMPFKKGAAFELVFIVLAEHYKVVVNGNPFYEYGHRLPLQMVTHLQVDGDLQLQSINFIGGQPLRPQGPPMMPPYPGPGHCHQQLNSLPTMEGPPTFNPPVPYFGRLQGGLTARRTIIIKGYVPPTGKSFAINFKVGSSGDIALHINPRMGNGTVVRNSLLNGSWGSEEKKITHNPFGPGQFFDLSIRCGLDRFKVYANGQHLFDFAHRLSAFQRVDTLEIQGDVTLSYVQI

gal3 [3] = molecular target: T2, gal3 (Homo sapiens, UniProt P17931); assay: Surface plasmon resonance (Biacore) kinetics and affinity for gal3; format: binding; conditions: SPR, biotinylated gal3 on chip
T2 construct: made in house
Protocol: The binding kinetics and affinity of a few carbohydrates for gal3 were measured in Surface Plasmon Resonance (SPR)-based binding assays using a Biacore™ T200 instrument (GE Healthcare). Biotinylated gal3 was attached to Biacore Sensor Chip SA (GE Healthcare) according to the instructions. For this purpose, biotinlyated gal3 was diluted into HBS-EP+ (GE Heathcare) to a concentration of 1 μg/mL and captured onto the streptavidin surface to a final level of 1750 RU. A reference surface was prepared with biotin captured onto the streptavidin. […] The binding response of small carbohydrate ligands were measured in Resonance units (RU) in real time at 10 HZ. These carbohydrates were injected for 30 seconds at 50 μL/min, and 30 seconds of dissociation data were collected. […] Raw sensorgram data were reference subtracted and blank subtracted prior to kinetic and affinity analysis. Biacore™ T200 Evaluation software was used for Steady-state affinity analysis and kinetic analysis.

gal3 [4] = molecular target: T2, gal3; assay: Solid phase binding-inhibition assay: gal3 binding to asialofetuin; conditions: for IC50: read-out: I50 value (converted)
Protocol: Briefly, asialofetuin (0.5 μg/100 μl/well) in 0.1 M Na2CO3/0.02% NaN3 (pH 9.6) was adsorbed onto the wells of microtiter plates (Immulon; Dynatech Laboratories, Chantilly, Va.) at 37° C. for 3 h, and the bound glycoprotein was fixed with 2% formaldehyde in phosphate-buffered saline (PBS, 10 mM phosphate, 140 mM NaCl, pH 7.5) at 37° C. for 30 min. The plates were washed three times with PBS (azide-free)/0.05% Tween 20, and incubated with the gal3-biotin conjugate (10 ng/100 μl/well for binding assays) or with preincubated mixture of equal volume of conjugate and varying concentrations of test ligands (for binding-inhibition assays). After incubation for 1 h at 4° C., the plates were washed with ice-cold azide-free PBS-Tween 20, and the bound conjugate was allowed to interact with peroxidase labeled streptavidin (0.05 μg/100 μl well) in azide-free PBS-Tween for 1 h at 4° C. The plate was washed with ice-cold azide free PBS-Tween and the bound peroxidase activity was assayed with peroxidase substrate diammonium 2,2′-azinobis(3-ethylbenzothiazoline-6-sulfonate) (KPL, Rockville, Md.) (37). […] After incubation for 2 h on ice, the mix was dialyzed with PBS and purified by affinity chromatography on lactosyl-Sepharose (37). The purified gal3-biotin conjugate was dialyzed with PBS and stored in 1% BSA-50% glycerol at −20° C. until further use. […] O-Glycosidase treatment removes TF-disaccharide from protein (cleaves GalNAc-Ser/Thr linkage).

pmel T cells = assay: Recombinant gal3-mediated apoptosis of tumor-specific CD8+ (pmel) T cells; format: cell-based, mouse
HUVEC = assay: In vitro angiogenesis (tube formation) of HUVEC; format: cell-based, human; conditions: recombinant gal3 5 μM, number of branching
Protocol: After 5 h, the microvessel formation was analyzed under phase contrast microscope at the 10× magnification. For quantitation of tube formation, the number of branching was counted in six areas (each […]) of each well and an average value was taken.

T2 sequence (P17931 whole entry): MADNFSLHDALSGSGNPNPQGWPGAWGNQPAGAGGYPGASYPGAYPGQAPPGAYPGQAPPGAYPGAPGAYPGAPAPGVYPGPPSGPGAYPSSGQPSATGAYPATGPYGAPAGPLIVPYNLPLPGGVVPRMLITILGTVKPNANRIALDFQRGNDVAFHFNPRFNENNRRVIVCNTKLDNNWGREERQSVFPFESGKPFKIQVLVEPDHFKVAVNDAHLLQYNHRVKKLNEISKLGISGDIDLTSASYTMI

IC50 [2]: 100 µM
IC50 (gal4): 10000 µM
Molecule: OC[C@H]1O[C@@H](O[C@H]2[C@H](O)[C@@H](O)C(O)O[C@@H]2CO)[C@H](O)[C@@H](O)[C@H]1O (some centres unmarked) [Lactose]
inhibition at 50 µM (MOLT-4 cells; Homo sapiens, MOLT-4): ~20%
inhibition at 50 µM (human CD8+ T cells; Homo sapiens, T-cell): ~67%
apoptosis of T cells reduced to [1]: 39%
inhibition at 50 µM (Jurkat cells; Homo sapiens, Jurkat): ~30%

Kd (gal3 [3]): 25 µM
Molecule: CC(=O)N[C@H]1C(O)O[C@H](CO)[C@@H](O[C@@H]2O[C@H](CO)[C@H](O)[C@H](O)[C@H]2O)[C@@H]1O (some centres unmarked) [N-acetyllactosamine]

Kd (gal3 [3]): 636 µM
RIA, relative inhibitory activity compared to lactose (taken as 1) (gal3 [4]; from I50 in μg/ml, Table 1): 0.47
IC50 (gal3 [4]; gal3 binding to asialofetuin): 200 µM
IC50 (gal3 [4]; inhibition of gal3 binding to asialofetuin, Table 1): 151 µM
Molecule: CC(=O)NC1C(O)OC(CO)C(O)C1OC1OC(CO)C(O)C(O)C1O (centres unmarked) [TFD, Galβ1,3GalNAc]

Molecule: gal3: purified recombinant galectin-3, used as inducer of angiogenesis and T cell apoptosis
cells undergoing apoptosis (MOLT-4 cells; gal3 5 μM, annexin V): ~50%
cell death of non-activated CD8+ T cells (pmel T cells; gal3 up to 15 μM, same as cells alone): ~22%
apoptosis of activated CD8+ T cells (pmel T cells; recombinant gal3 5 μM, CD8 alone ~61%): ~76%
cells death (human CD8+ T cells; gal3 5 μM, flow cytometry): ~54%
enhancement of tube formation (HUVEC): ~25%
gal3-mediated apoptosis (Jurkat cells; gal3 5 μM): ~34%
